What was measured:
Test in all cases: cells
KNS-42 = type: functional, cell-based, Homo sapiens; conditions: Homo sapiens, KNS-42
Description: SANGER: Inhibition of human KNS-42 cell growth in a cell viability assay.

COLO-792 = type: functional, cell-based, Homo sapiens; conditions: Homo sapiens, COLO-792
Description: SANGER: Inhibition of human COLO-792 cell growth in a cell viability assay.

COR-L88 = type: functional, cell-based; conditions: Homo sapiens
Description: SANGER: Inhibition of human COR-L88 cell growth in a cell viability assay.

CTB-1 = type: functional, cell-based; conditions: Homo sapiens
Description: SANGER: Inhibition of human CTB-1 cell growth in a cell viability assay.

D-502MG = type: functional, cell-based, Homo sapiens; conditions: Homo sapiens, D-502MG
Description: SANGER: Inhibition of human D-502MG cell growth in a cell viability assay.

HSC-2 = type: functional, cell-based, Homo sapiens; conditions: Homo sapiens, HSC-2
Description: SANGER: Inhibition of human HSC-2 cell growth in a cell viability assay.

COLO-678 = type: functional, cell-based, Homo sapiens; conditions: Homo sapiens, COLO-678
Description: SANGER: Inhibition of human COLO-678 cell growth in a cell viability assay.

DJM-1 = type: functional, cell-based, Homo sapiens; conditions: Homo sapiens, DJM-1
Description: SANGER: Inhibition of human DJM-1 cell growth in a cell viability assay.

BB30-HNC = type: functional, cell-based, Homo sapiens; conditions: Homo sapiens, BB30-HNC
Description: SANGER: Inhibition of human BB30-HNC cell growth in a cell viability assay.

HT-29 = type: functional, cell-based, Homo sapiens; conditions: Homo sapiens, HT-29
Description: SANGER: Inhibition of human HT-29 cell growth in a cell viability assay.

NCI-H2170 = type: functional, cell-based, Homo sapiens; conditions: Homo sapiens, NCI-H2170
Description: SANGER: Inhibition of human NCI-H2170 cell growth in a cell viability assay.

COLO-680N = type: functional, cell-based, Homo sapiens; conditions: Homo sapiens, COLO-680N
Description: SANGER: Inhibition of human COLO-680N cell growth in a cell viability assay.

LAMA-84 = type: functional, cell-based; conditions: Homo sapiens
Description: SANGER: Inhibition of human LAMA-84 cell growth in a cell viability assay.

YKG-1 = type: functional, cell-based, Homo sapiens; conditions: Homo sapiens, YKG-1
Description: SANGER: Inhibition of human YKG-1 cell growth in a cell viability assay.

LU-99A = type: functional, cell-based, Homo sapiens; conditions: Homo sapiens, LU-99A
Description: SANGER: Inhibition of human LU-99A cell growth in a cell viability assay.

769-P = type: functional, cell-based, Homo sapiens; conditions: Homo sapiens, 769-P
Description: SANGER: Inhibition of human 769-P cell growth in a cell viability assay.

NCI-H28 = type: functional, cell-based, Homo sapiens; conditions: Homo sapiens, NCI-H28
Description: SANGER: Inhibition of human NCI-H28 cell growth in a cell viability assay.

NCI-H1623 = type: functional, cell-based, Homo sapiens; conditions: Homo sapiens, NCI-H1623
Description: SANGER: Inhibition of human NCI-H1623 cell growth in a cell viability assay.

BV-173 = type: functional, cell-based; conditions: Homo sapiens
Description: SANGER: Inhibition of human BV-173 cell growth in a cell viability assay.

SAOS-2 = type: functional, cell-based, Homo sapiens; conditions: Homo sapiens, SAOS-2
Description: SANGER: Inhibition of human Saos-2 cell growth in a cell viability assay.

GT3TKB = type: functional, cell-based, Homo sapiens; conditions: Homo sapiens, GT3TKB
Description: SANGER: Inhibition of human GT3TKB cell growth in a cell viability assay.

CP50-MEL-B = type: functional, cell-based, Homo sapiens; conditions: Homo sapiens, CP50-MEL-B
Description: SANGER: Inhibition of human CP50-MEL-B cell growth in a cell viability assay.

J82 = type: functional, cell-based; conditions: Homo sapiens
Description: SANGER: Inhibition of human J82 cell growth in a cell viability assay.

HD-MY-Z = type: functional, cell-based, Homo sapiens; conditions: Homo sapiens, HD-MY-Z
Description: SANGER: Inhibition of human HD-MY-Z cell growth in a cell viability assay.

NCI-H2122 = type: functional, cell-based, Homo sapiens; conditions: Homo sapiens, NCI-H2122
Description: SANGER: Inhibition of human NCI-H2122 cell growth in a cell viability assay.

Calu-6 = type: functional, cell-based, Homo sapiens; conditions: Homo sapiens, Calu-6
Description: SANGER: Inhibition of human Calu-6 cell growth in a cell viability assay.

SHP77 = type: functional, cell-based, Homo sapiens, SHP-77; conditions: Homo sapiens, SHP77
Description: SANGER: Inhibition of human SHP-77 cell growth in a cell viability assay.

SK-PN-DW = type: functional, cell-based; conditions: Homo sapiens
Description: SANGER: Inhibition of human SK-PN-DW cell growth in a cell viability assay.

RPMI-8866 = type: functional, cell-based; conditions: Homo sapiens
Description: SANGER: Inhibition of human RPMI-8866 cell growth in a cell viability assay.

VM-CUB-1 = type: functional, cell-based; conditions: Homo sapiens
Description: SANGER: Inhibition of human VM-CUB-1 cell growth in a cell viability assay.

C2BBe1 = type: functional, cell-based, Homo sapiens; conditions: Homo sapiens, C2BBe1
Description: SANGER: Inhibition of human C2BBe1 cell growth in a cell viability assay.

LXF-289 cell line = type: functional, cell-based, Homo sapiens; conditions: Homo sapiens, LXF-289
Description: SANGER: Inhibition of human LXF-289 cell growth in a cell viability assay.

BHT-101 = type: functional, cell-based, Homo sapiens; conditions: Homo sapiens, BHT-101
Description: SANGER: Inhibition of human BHT-101 cell growth in a cell viability assay.

PC-14 = type: functional, cell-based, Homo sapiens; conditions: Homo sapiens, PC-14
Description: SANGER: Inhibition of human PC-14 cell growth in a cell viability assay.

A204 = type: functional, cell-based, Homo sapiens; conditions: Homo sapiens, A204
Description: SANGER: Inhibition of human A204 cell growth in a cell viability assay.

NB13 = type: functional, cell-based, Homo sapiens; conditions: Homo sapiens, NB13
Description: SANGER: Inhibition of human NB13 cell growth in a cell viability assay.

BPH-1 = type: functional, cell-based, Homo sapiens; conditions: Homo sapiens, BPH-1
Description: SANGER: Inhibition of human BPH-1 cell growth in a cell viability assay.

TK-10 = type: functional, cell-based, Homo sapiens; conditions: Homo sapiens, TK-10
Description: SANGER: Inhibition of human TK10 cell growth in a cell viability assay.

PANC-03-27 = type: functional, cell-based, Homo sapiens; conditions: Homo sapiens, PANC-03-27
Description: SANGER: Inhibition of human PANC-03-27 cell growth in a cell viability assay.

LAN-6 = type: functional, cell-based, Homo sapiens; conditions: Homo sapiens, LAN-6
Description: SANGER: Inhibition of human LAN-6 cell growth in a cell viability assay.

CAL-12T = type: functional, cell-based, Homo sapiens; conditions: Homo sapiens, CAL-12T
Description: SANGER: Inhibition of human CAL-12T cell growth in a cell viability assay.

KYSE-180 = type: functional, cell-based, Homo sapiens; conditions: Homo sapiens, KYSE-180
Description: SANGER: Inhibition of human KYSE-180 cell growth in a cell viability assay.

CGTH-W-1 = type: functional, cell-based, Homo sapiens; conditions: Homo sapiens, CGTH-W-1
Description: SANGER: Inhibition of human CGTH-W-1 cell growth in a cell viability assay.

GAK = type: functional, cell-based, Homo sapiens; conditions: Homo sapiens, GAK
Description: SANGER: Inhibition of human GAK cell growth in a cell viability assay.

LN-405 = type: functional, cell-based, Homo sapiens; conditions: Homo sapiens, LN-405
Description: SANGER: Inhibition of human LN-405 cell growth in a cell viability assay.

MHH-ES-1 = type: functional, cell-based, Homo sapiens; conditions: Homo sapiens, MHH-ES-1
Description: SANGER: Inhibition of human MHH-ES-1 cell growth in a cell viability assay.

TE-9 = type: functional, cell-based, Homo sapiens; conditions: Homo sapiens, TE-9
Description: SANGER: Inhibition of human TE-9 cell growth in a cell viability assay.

SK-MEL-28 = type: functional, cell-based; conditions: Homo sapiens
Description: SANGER: Inhibition of human SK-MEL-28 cell growth in a cell viability assay.

SNU-C2B = type: functional, cell-based, Homo sapiens; conditions: Homo sapiens, SNU-C2B
Description: SANGER: Inhibition of human SNU-C2B cell growth in a cell viability assay.

J-RT3-T3-5 = type: functional, cell-based; conditions: Homo sapiens
Description: SANGER: Inhibition of human J-RT3-T3-5 cell growth in a cell viability assay.

A-427 = type: functional, cell-based, Homo sapiens; conditions: Homo sapiens, A-427
Description: SANGER: Inhibition of human A427 cell growth in a cell viability assay.

## O=C1N=C(NCc2cccs2)S/C1=C\c1ccc2ncccc2c1
KNS-42
  IC50: > 5 µM
COLO-792
  IC50: > 5 µM
COR-L88
  IC50: 3.48 µM
CTB-1
  IC50: > 5 µM
D-502MG
  IC50: > 5 µM
HSC-2
  IC50: > 5 µM
COLO-678
  IC50: > 5 µM
DJM-1
  IC50: > 5 µM
BB30-HNC
  IC50: > 5 µM
HT-29
  IC50: > 5 µM
NCI-H2170
  IC50: > 5 µM
COLO-680N
  IC50: > 5 µM
LAMA-84
  IC50: > 5 µM
YKG-1
  IC50: > 5 µM
LU-99A
  IC50: > 5 µM
769-P
  IC50: > 5 µM
NCI-H28
  IC50: > 5 µM
NCI-H1623
  IC50: > 5 µM
BV-173
  IC50: > 5 µM
SAOS-2
  IC50: > 5 µM
GT3TKB
  IC50: > 5 µM
CP50-MEL-B
  IC50: > 5 µM
J82
  IC50: > 5 µM
HD-MY-Z
  IC50: > 5 µM
NCI-H2122
  IC50: > 5 µM
Calu-6
  IC50: > 5 µM
SHP77
  IC50: > 5 µM
SK-PN-DW
  IC50: > 5 µM
RPMI-8866
  IC50: > 5 µM
VM-CUB-1
  IC50: > 5 µM
C2BBe1
  IC50: > 5 µM
LXF-289 cell line
  IC50: 4.22 µM
BHT-101
  IC50: > 5 µM
PC-14
  IC50: > 5 µM
A204
  IC50: > 5 µM
NB13
  IC50: > 5 µM
BPH-1
  IC50: 2.97 µM
TK-10
  IC50: > 5 µM
PANC-03-27
  IC50: > 5 µM
LAN-6
  IC50: > 5 µM
CAL-12T
  IC50: > 5 µM
KYSE-180
  IC50: > 5 µM
CGTH-W-1
  IC50: > 5 µM
GAK
  IC50: > 5 µM
LN-405
  IC50: > 5 µM
MHH-ES-1
  IC50: > 5 µM
TE-9
  IC50: > 5 µM
SK-MEL-28
  IC50: > 5 µM
SNU-C2B
  IC50: > 5 µM
J-RT3-T3-5
  IC50: > 5 µM
A-427
  IC50: > 5 µM

## COC(=O)CNC(=O)C(=O)OC
KNS-42
  IC50: 229 µM
COLO-792
  IC50: > 4000 µM
COR-L88
  IC50: 273 µM
CTB-1
  IC50: 86 µM
D-502MG
  IC50: > 4000 µM
HSC-2
  IC50: 504 µM
COLO-678
  IC50: 2000 µM
DJM-1
  IC50: 215 µM
BB30-HNC
  IC50: 148 µM
HT-29
  IC50: 846 µM
NCI-H2170
  IC50: > 4000 µM
COLO-680N
  IC50: 242 µM
LAMA-84
  IC50: 2110 µM
YKG-1
  IC50: 767 µM
LU-99A
  IC50: 197 µM
769-P
  IC50: > 4000 µM
NCI-H28
  IC50: 1350 µM
NCI-H1623
  IC50: 117 µM
BV-173
  IC50: 234 µM
SAOS-2
  IC50: 193 µM
GT3TKB
  IC50: 242 µM
CP50-MEL-B
  IC50: > 4000 µM
J82
  IC50: 57.6 µM
HD-MY-Z
  IC50: 1480 µM
NCI-H2122
  IC50: 74.4 µM
Calu-6
  IC50: 732 µM
SHP77
  IC50: 821 µM
SK-PN-DW
  IC50: 215 µM
RPMI-8866
  IC50: > 4000 µM
VM-CUB-1
  IC50: 151 µM
C2BBe1
  IC50: 1730 µM
LXF-289 cell line
  IC50: 260 µM
BHT-101
  IC50: > 4000 µM
PC-14
  IC50: > 4000 µM
A204
  IC50: 398 µM
NB13
  IC50: 659 µM
BPH-1
  IC50: 276 µM
TK-10
  IC50: 355 µM
PANC-03-27
  IC50: 672 µM
LAN-6
  IC50: 2080 µM
CAL-12T
  IC50: 26.6 µM
KYSE-180
  IC50: > 4000 µM
CGTH-W-1
  IC50: 489 µM
GAK
  IC50: 774 µM
LN-405
  IC50: 1610 µM
MHH-ES-1
  IC50: 115 µM
TE-9
  IC50: 951 µM
SK-MEL-28
  IC50: 569 µM
SNU-C2B
  IC50: > 4000 µM
J-RT3-T3-5
  IC50: 1740 µM
A-427
  IC50: 642 µM
